Laboratory results: BindingDB's records for doi:10.1016/j.bmcl.2004.12.084 (Novo Nordisk, 2005)

Target: Peroxisome proliferator-activated receptor gamma (Homo sapiens) (UniProt P37231)
Assay: Effective concentration for human peroxisome proliferator-activated receptor gamma

EC50 [µM]	SMILES
15	CCO[C@@H](Cc1ccc(O/C=C\Oc2ccc(C[C@@H](OCC)C(=O)O)cc2)cc1)C(=O)O [(S)-3-(4-{(Z)-2-[4-((R)-2-Carboxy-2-ethoxy-ethyl)-phenoxy]-vinyloxy}-phenyl)-2-ethoxy-propionic acid]
0.6	CCO[C@@H](Cc1ccc(OC/C=C(/C)C#Cc2ccccc2)cc1)C(=O)O [(S)-2-Ethoxy-3-[4-((Z)-3-methyl-5-phenyl-pent-2-en-4-ynyloxy)-phenyl]-propionic acid]
14	CCO[C@@H](Cc1ccc(OCc2ccc(COc3ccc(C[C@H](OCC)C(=O)O)cc3)cc2)cc1)C(=O)O [(S)-3-(4-{4-[4-((S)-2-Carboxy-2-ethoxy-ethyl)-phenoxymethyl]-benzyloxy}-phenyl)-2-ethoxy-propionic acid]
